Active and inactive are the calls of the source. The rule behind the calls is not given here.
Key:
Quadruplex DNA [1] = assay: Binding affinity to human TERT G4-quadruplex DNA assessed as change in melting temperature by UV-visible spectrophotometry; assay type: nucleic-acid assay
Homo sapiens [2] = organism: Homo sapiens; assay: Selectivity index, ratio of Kd for biotin-labeled human HTR G4-quadruplex DNA to Kd for biotin-labeled human TERT G4-quadruplex DNA by SPR analysis
DNA [3] = assay: Binding affinity to human TERT hairpin duplex DNA assessed as change in melting temperature by UV-visible spectrophotometry; assay type: nucleic-acid assay
Quadruplex DNA [4] = assay: Induction of parallel human TERT G4-quadruplex DNA structural changes up to 20 uM by circular dichroism analysis; assay type: nucleic-acid assay
Quadruplex DNA [5] = assay: Induction of parallel human TERRA G4-quadruplex RNA structural changes up to 20 uM by circular dichroism analysis; assay type: nucleic-acid assay
Quadruplex DNA [6] = assay: Binding affinity to biotin-labeled human TERT G4-quadruplex DNA assessed as dissociation equilibrium binding constant by SPR analysis; assay type: nucleic-acid assay
Quadruplex DNA [7] = assay: Binding affinity to human TERRA G4-quadruplex RNA assessed as dissociation equilibrium binding constant by fluorescence anisotropy titration based fluorescence spectrophotometry; assay type: nucleic-acid assay
Quadruplex DNA [8] = assay: Binding affinity to human HTR G4-quadruplex DNA assessed as change in melting temperature by UV-visible spectrophotometry; assay type: nucleic-acid assay
Quadruplex DNA [9] = assay: Induction of (3+1) hybrid structural changes of human HTR G4-quadruplex DNA to antiparallel structure at 20 uM by circular dichroism analysis; assay type: nucleic-acid assay
Quadruplex DNA [10] = assay: Binding affinity to human TERT G4-quadruplex DNA assessed as dissociation equilibrium binding constant by intrinsic fluorescence titration based fluorescence spectrophotometry; assay type: nucleic-acid assay
Quadruplex DNA [11] = assay: Binding affinity to G-quartet terminal of human TERT G4-quadruplex DNA with parallel topology up to 20 uM by circular dichroism analysis; assay type: nucleic-acid assay
Quadruplex DNA [12] = assay: Binding affinity to G-quartet terminal of human TERRA G4-quadruplex RNA with parallel topology up to 20 uM by circular dichroism analysis; assay type: nucleic-acid assay
Homo sapiens [13] = organism: Homo sapiens; assay: Selectivity index, ratio of Kd for human HTR G4-quadruplex DNA to Kd for human TERRA G4-quadruplex RNA by fluorescence spectrophotometry
Quadruplex DNA [14] = assay: Binding affinity to biotin-labeled human TERRA G4-quadruplex RNA assessed as dissociation equilibrium binding constant by SPR analysis; assay type: nucleic-acid assay
Quadruplex DNA [15] = assay: Binding affinity to biotin-labeled human HTR G4-quadruplex DNA assessed as dissociation equilibrium binding constant by SPR analysis; assay type: nucleic-acid assay
DNA [16] = assay: Binding affinity to biotin-labeled duplex DNA AAAGAACTTT (unknown origin) assessed as dissociation equilibrium binding constant by SPR analysis; assay type: nucleic-acid assay
Quadruplex DNA [17] = assay: Binding affinity to human HTR G4-quadruplex DNA assessed as dissociation equilibrium binding constant by intrinsic fluorescence titration based fluorescence spectrophotometry; assay type: nucleic-acid assay
Homo sapiens [18] = organism: Homo sapiens; assay: Selectivity index, ratio of Kd for biotin-labeled human HTR G4-quadruplex DNA to Kd for biotin-labeled human TERRA G4-quadruplex RNA by SPR analysis
Quadruplex DNA [19] = assay: Binding affinity to end quartet of (3+1) hybrid structure of human HTR G4-quadruplex DNA up to 20 uM by circular dichroism analysis; assay type: nucleic-acid assay
Homo sapiens [20] = organism: Homo sapiens; assay: Selectivity index, ratio of Kd for human HTR G4-quadruplex DNA to Kd for human TERT G4-quadruplex DNA by intrinsic fluorescence titration based fluorescence spectrophotometry

ΔTm (Quadruplex DNA [1]) | Selectivity Index (Homo sapiens [2]) | ΔTm (DNA [3]) | Activity (Quadruplex DNA [4]) | Activity (Quadruplex DNA [5]) | Kd (Quadruplex DNA [6]) | Kd (Quadruplex DNA [7]) | ΔTm (Quadruplex DNA [8]) | Activity (Quadruplex DNA [9]) | Kd (Quadruplex DNA [10]) | Activity (Quadruplex DNA [11]) | Activity (Quadruplex DNA [12]) | Selectivity Index (Homo sapiens [13]) | Kd (Quadruplex DNA [14]) | Kd (Quadruplex DNA [15]) | Kd (DNA [16]) | Kd (Quadruplex DNA [17]) | Selectivity Index (Homo sapiens [18]) | Activity (Quadruplex DNA [19]) | Selectivity Index (Homo sapiens [20]) | Compound
13 °C | 7 | 2 °C | inactive | inactive | 12 nM | 3 nM | 5 °C | Active | 16 nM | Active | Active | 5 | 4 nM | 82 nM | > 100 nM | 94 nM | 5 | Active | – | O=C1c2ccc3c4c(c(NCCN5CCCC5)cc(c24)C(=O)N1CCCN1CCOCC1)C(=O)N(CCCN1CCOCC1)C3=O
18 °C | – | 2 °C | inactive | inactive | 4 nM | 2 nM | 10 °C | Active | 4 nM | Active | Active | 5 | 3 nM | 28 nM | > 100 nM | 29 nM | 5 | Active | 5 | O=C1c2cc(-c3ccc(CN4CCCC4)cc3)c3c4c(cc(NCCN5CCCC5)c(c24)C(=O)N1CCCN1CCOCC1)C(=O)N(CCCN1CCOCC1)C3=O [QN-302]
– | – | < 2 °C | inactive | inactive | 2 nM | 2 nM | 11 °C | Active | 4 nM | Active | Active | – | 3 nM | 5 nM | – | 10 nM | – | Active | – | CN1CCN(CCCNc2cc3c4c(c(NCCCN5CCN(C)CC5)cc5c4c2C(=O)N(CCCN2CCOCC2)C5=O)C(=O)N(CCCN2CCOCC2)C3=O)CC1
